In patent US20240398783A1, “Compounds and Pharmaceutical Compositions Comprising Inhibitors of Amyloid Peptide Interactions with Glycosaminoglycans, Methods of Treatment and Use Thereof” (Gismo Therapeutics, Inc., priority 2021, published 2024):
Structures can show the parent of a compound that is named as a salt. Where two headings read alike, the source gives them in different places. One block for each molecule: values may come before it.

Key:
[1] = target: Tau binding to purified human brain membranes (Homo sapiens, UniProt P10636); test: Inhibition of Tau binding to purified human brain cell membranes (ELISA)
Experimental: (§1) Purified human brain cell membranes were prepared by differential centrifugation as follows. Five grams of frozen human brain postmortem tissue (obtained from University of Kentucky Alzheimer's Disease Center Tissue Bank) was homogenized in 50 ml HEPES-Buffered sucrose (0.32M sucrose, 4 mM HEPES pH7.4, protease inhibitors) with a motor driven glass-teflon homogenizer. After removing nuclear and cell debris by centrifugation of homogenates at 1,000×g for 10 min at 4 degree Celsius, post-nuclear supernatant was centrifuged at 100,000×g for 30 minutes to yield the crude membrane pellet. Crude membrane pellet was re-suspended in 0.32M sucrose, then centrifuged again at 100,000×g for 30 minutes to yield washed membrane pellet. Membrane pellet was resuspended in sterile PBS (pH7.4), quickly frozen, and kept in aliquots at −80 degrees Celsius. This preparation contains human brain cell membranes. Protein concentration was measured with BCA protein assay kit (Pierce Cat. No. 23227). Purified brain membranes were diluted to 0.01 mg/ml in PBS (pH 7.4) and then added to a 96 well polystyrene ELISA plate (NUNC Cat. No. 449824; 100 μl per well). Plates were incubated Over Night (ON) at 4 degrees Celsius. Following the incubation, the plate was washed consecutively, by immersion, with de-ionized water and PBS (pH 7.4). The ELISA plate was then blocked with nonfat milk (2%, 200 μl per well) for 2 hours at Room Temperature (RT). Following blocking, the plate was washed with de-ionized water then PBS (pH 7.4). GBAPs were dissolved and diluted in PBS (pH 6.5, supplemented with 0.1% BSA) at desired concentrations, added to the ELISA plates coated with brain membranes (100 μl per well) and incubated for 2 hours at RT with gentle shaking. Following incubation, the plate was washed with de-ionized water and three times with PBS (pH 6.5) plus Tween. Bound GBAP was detected by a monoclonal antibody specific for that GBAP, followed by incubation with secondary antibody conjugated to horseradish peroxidase (HRP). Antibody was diluted in PBS (pH6.5 supplemented with 1% BSA). Following each incubation with antibody, the plate was washed with de-ionized water and three times with PBS (pH6.5) wash buffer containing 0.1% Tween. The peroxidase substrate chromogen, TMB (Dako Cat. No. S1599) was added (100 μl per well) to the ELISA plate and incubated at room temperature. After 5 minutes ELISA Stop Solution (hydrochloric acid 1N, sulfuric acid 3N) was added (100 μl per well) to stop the peroxidase catalyzed colorimetric reaction. The Optical Density of the samples was measured at 450 nm using an ELISA plate reader (BioTek Synergy H1). Following color development, the % inhibition compared to control was determined. IC-50s were calculated using GraphPad Prism software.
The assay was performed as described in Example 49, with the following modifications.
Following to coating the plates with purified human brain cell membranes, plates were washed as described. The compounds were dissolved in DMSO at 10 mM final concentration and further diluted prior to assay. DMSO concentration in the screening well was up to 2%. Individual compounds were co-incubated with Tau on plates coated with purified human brain membranes. Tau purchased from rPeptide (Cat. No. T1001) was dissolved in DMSO (Sigma Cat. No. D2650), quickly frozen and kept in aliquots at −80 degrees Celsius. Tau dissolved in PBS (pH 6.5, supplemented with BSA, 0.1%) was added to the ELISA plate (100 μl per well) and incubated for 2 hours at RT with gentle shaking. Following the incubation, the plate was washed with de-ionized water and three times with PBS (pH 6.5) plus Tween. Bound Tau was detected by anti-Tau Monoclonal Antibody D-8 (Santa Cruz Cat. No. sc-166060), followed by secondary anti-IgG antibody conjugated to HRP (R&D System, Cat. No. HAF007). Following to color development with TMB, as described in Example 49, the Optical Density of the samples was measured at 450 nm using an ELISA plate reader. […]

[2] = target: T1, Amyloid-beta(1-42) oligomer binding to purified human brain membranes (Homo sapiens, UniProt P05067); test: Inhibition of Amyloid-beta(1-42) oligomer binding to purified human brain cell membranes (ELISA); settings: Abeta(1-42) oligomers, read-out: Abeta42/Membrane Activity (IC-50)
T1 construct: Beta-amyloid (1-42) was purchased from rPeptide (Cat. No. A1163); purchased rPeptide A1163
Experimental: as §1
(§2) The assay was performed as described in Example 49, with the following modifications. Following to coating the plates with purified human brain cell membranes, plates were washed as described. The compounds were dissolved in DMSO at 10 mM final concentration and further diluted prior to assay. DMSO concentration in the screening well was up to 2%. Individual compounds were co-incubated with Beta-amyloid peptides on plates coated with purified human brain membranes. Beta-amyloid (1-42) oligomers were prepared as described in Example 2. Beta-amyloid (1-40) from rPeptide (Cat No. A1153) was dissolved in DMSO, quickly frozen and kept in aliquots at −80 degrees Celsius. Beta-amyloid (1-42) oligomers or Beta-amyloid (1-40) dissolved in PBS (pH 6.5, supplemented with BSA, 0.1%) were added to the ELISA plate (100 μl per well) and incubated for 2 hours at RT with gentle shaking. Following the incubation, the plate was washed with de-ionized water and three times with PBS (pH 6.5) plus Tween. […]

[3] = target: T2, Amyloid-beta(1-40) binding to purified human brain membranes (Homo sapiens, UniProt P05067); test: Inhibition of Amyloid-beta(1-40) binding to purified human brain cell membranes (ELISA); settings: Abeta(1-40), read-out: Abeta40/Membrane Activity (IC-50)
T2 construct: Beta-amyloid (1-40) from rPeptide (Cat No. A1153) was dissolved in DMSO; purchased rPeptide A1153
Experimental: as §1, §2

T2 sequence (P05067 672-711): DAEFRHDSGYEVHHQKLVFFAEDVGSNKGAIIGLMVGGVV
Tau binding to purified human brain membranes, sequence (P10636 with tags, fused parts or gaps): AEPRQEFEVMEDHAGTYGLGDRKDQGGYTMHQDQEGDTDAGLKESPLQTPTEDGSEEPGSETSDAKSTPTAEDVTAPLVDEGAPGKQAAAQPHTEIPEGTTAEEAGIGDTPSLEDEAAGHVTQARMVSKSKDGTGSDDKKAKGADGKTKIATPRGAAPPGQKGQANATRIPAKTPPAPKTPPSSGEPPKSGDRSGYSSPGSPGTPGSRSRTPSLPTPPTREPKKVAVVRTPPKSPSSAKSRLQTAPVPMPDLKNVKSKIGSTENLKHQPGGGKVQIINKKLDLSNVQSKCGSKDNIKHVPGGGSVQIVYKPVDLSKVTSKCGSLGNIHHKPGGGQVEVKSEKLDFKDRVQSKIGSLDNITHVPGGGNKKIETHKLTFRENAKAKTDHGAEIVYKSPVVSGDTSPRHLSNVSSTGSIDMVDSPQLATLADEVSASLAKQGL
T1 sequence (P05067 672-713): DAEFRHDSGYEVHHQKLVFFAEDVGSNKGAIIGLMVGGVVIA

Structure (SMILES): Cc1ncn(-c2ncc(Nc3ncnc4cc(Cl)ccc34)cc2O)c1C [Compound 40, 5-((7-chloroquinazolin-4-yl)amino)-2-(4,5-dimethyl-1H-imidazol-1-yl)pyridin-3-ol phosphoric acid salt]
IC50 [1]: 65.1 µM | IC50 [2]: 4.36 µM

Structure (SMILES): Fc1ccc2c(N/N=C/c3ccc(-n4ccnc4)cc3)ccnc2c1 [Compound 5, (E)-4-(2-(4-(1H-imidazol-1-yl)benzylidene)hydrazinyl)-7-fluoroquinoline]
IC50 [1]: 0.84 µM

Structure (SMILES): Cc1ncn(-c2ccc(Nc3ncnc4cc(Cl)ccc34)cn2)c1C [Compound 25, 7-chloro-N-(6-(4,5-dimethyl-1H-imidazol-1-yl)pyridin-3-yl)quinazolin-4-amine]
IC50 [2]: 7.01 µM | IC50 [3]: 4.68 µM

Structure (SMILES): Cc1ncn(-c2ccc(/C=N/Nc3ccnc4cc(Cl)ccc34)cc2)c1C [Compound 2, (E)-7-chloro-4-((E)-(4-(4,5-dimethyl-1H-imidazol-1-yl)benzylidene)hydrazono)-1,4-dihydroquinoline]
IC50 [1]: 11.4 µM

Structure (SMILES): Clc1ccc2c(Nc3ccc(-n4cncn4)nc3)ncnc2c1 [Compound 34, N-(6-(1H-1,2,4-triazol-1-yl)pyridin-3-yl)-7-chloroquinazolin-4-amine phosphoric acid salt]
IC50 [2]: 10.4 µM

IC50 ([1]; Tau, purified human brain membranes, read-out: Tau/Membrane Activity (IC-50)): 5.58 µM | IC50 [3]: 18.7 µM
Structure (SMILES): Clc1ccc2c(Nc3ccc(-n4ccnc4)nc3)ncnc2c1 [Compound 41, N-(6-(1H-imidazol-1-yl)pyridin-3-yl)-7-chloroquinazolin-4-amine]

Structure (SMILES): CN1CCN(Cc2ccc(/C=N/Nc3ccnc4cc(Cl)ccc34)cc2)CC1 [Compound 7, (E)-7-chloro-4-(2-(4-((4-methylpiperazin-1-yl)methyl)benzylidene)hydrazinyl)quinolone]
IC50 [1]: 1.22 µM

Structure (SMILES): Clc1ccc2c(Nc3ccc(-n4cncn4)nc3)ccnc2c1 [Compound 44, N-(6-(1H-1,2,4-triazol-1-yl)pyridin-3-yl)-7-chloroquinolin-4-amine]
IC50 [3]: 43 µM

IC50 [3]: 3.71 µM
Structure (SMILES): CC(=NNc1ncnc2cc(Cl)ccc12)c1ccnc(-n2cnc(C)c2C)c1 [Compound 28, 7-chloro-4-(2-(1-(2-(4,5-dimethyl-1H-imidazol-1-yl)pyridin-4-yl)ethylidene)hydrazineyl)quinazoline]

Structure (SMILES): COc1cc2nccc(NN=Cc3ccc(-n4ccnc4)c(C)c3)c2cc1OC [Compound 11, 4-(2-(4-(1H-imidazol-1-yl)-3-methylbenzylidene)hydrazineyl)-6,7-dimethoxyquinoline hydrochloride]
IC50 [1]: 8.31 µM

Structure (SMILES): COc1ccc2c(NN=Cc3ccc(-n4ccnc4)c(C)c3)ccnc2c1 [Compound 12, 4-(2-(4-(1H-imidazol-1-yl)-3-methylbenzylidene)hydrazineyl)-7-methoxyquinoline]
IC50 [1]: 29.9 µM

Structure (SMILES): CC(=NNc1ccnc2cc(Cl)ccc12)c1ccc(-n2cnc(C)c2C)nc1 [Compound 22, 7-chloro-4-(2-(1-(6-(4,5-dimethyl-1H-imidazol-1-yl)pyridin-3-yl)ethylidene)hydrazineyl)quinoline]
IC50 [2]: 3.56 µM | IC50 [3]: 1.78 µM

Structure (SMILES): Fc1ccc2c(N/N=C/c3ccc(CN4CCOCC4)cc3)ccnc2c1 [Compound 6, (E)-4-(4-((2-(7-fluoroquinolin-4-yl)hydrazono)methyl)benzyl)morpholine]
IC50 [1]: 0.63 µM

Structure (SMILES): C/C(=N\Nc1ncnc2cc(Cl)ccc12)c1ccc(-n2cc[n+](C)c2)nc1 [Compound 17, (E)-1-(5-(1-(2-(7-chloroquinazolin-4-yl)hydrazineylidene)ethyl)pyridin-2-yl)-3-methyl-1H-imidazol-3-ium iodide phosphoric acid salt]
IC50 [3]: 27.9 µM

Structure (SMILES): C/C(=N\Nc1ncnc2ccccc12)c1ccc(-n2cc(C)nc2C)nc1 [Compound 19, (E)-4-(2-(1-(6-(2,4-dimethyl-1H-imidazol-1-yl)pyridin-3-yl)ethylidene)hydrazineyl)quinazoline]
IC50 [3]: 3.09 µM

IC50 [2]: 3.3 µM | IC50 [3]: 5.95 µM
Structure (SMILES): C/C(=N\Nc1ncnc2cc(F)ccc12)c1ccc(-n2cnc(C)c2C)nc1 [Compound 21, (E)-4-(2-(1-(6-(4,5-dimethyl-1H-imidazol-1-yl)pyridin-3-yl)ethylidene)hydrazineyl)-7-fluoroquinazoline]

Structure (SMILES): C/C(=N\Nc1ncnc2cc(Cl)ccc12)c1ccc(-n2cc(C)nc2C)nc1 [Compound 27, (E)-7-chloro-4-(2-(1-(6-(2,4-dimethyl-1H-imidazol-1-yl)pyridin-3-yl)ethylidene)hydrazineyl)quinazoline hydrochloride]
IC50 [2]: 3.97 µM | IC50 [3]: 2.23 µM

Structure (SMILES): C/C(=N\Nc1ncnc2cc(F)ccc12)c1ccc(-n2cc[n+](C)c2)nc1 [Compound 26, (E)-1-(5-(1-(2-(7-fluoroquinazolin-4-yl)hydrazineylidene)ethyl)pyridin-2-yl)-3-methyl-1H-imidazol-3-ium phosphoric acid salt]
IC50 [3]: 1.51 µM

Structure (SMILES): CCN(CC)Cc1cccc(Nc2ccnc3cc(Cl)ccc23)c1 [Compound 42, 7-chloro-N-(3-((diethylamino)methyl)phenyl)quinolin-4-amine]
IC50 [3]: 6.56 µM

Structure (SMILES): CC(=NNc1ccnc2cc(Cl)ccc12)c1ccc(-n2ccnc2)cc1 [Compound 36, 4-(2-(1-(4-(1H-imidazol-1-yl)phenyl)ethylidene)hydrazineyl)-7-chloroquinoline phosphate]
IC50 [2]: 18.7 µM

Structure (SMILES): C/C(=N\Nc1ncnc2cc(Cl)ccc12)c1ccc(-n2cc(C)nc2C)nc1 [Compound 18, (E)-7-chloro-4-(2-(1-(6-(2,4-dimethyl-1H-imidazol-1-yl)pyridin-3-yl)ethylidene)hydrazineyl)quinazoline phosphoric acid salt]
IC50 [3]: 17.3 µM

Structure (SMILES): CCN1CCN(c2ccc(Nc3ccnc4cc5ccccc5cc34)cc2)CC1 [Compound 39, N-(4-(4-ethylpiperazin-1-yl)phenyl)benzo[g]quinolin-4-amine]
IC50 [1]: 54.1 µM | IC50 [3]: 1.46 µM

Structure (SMILES): Cc1ncn(-c2ccc(/C=N\Nc3ncnc4cc(Cl)ccc34)cn2)c1C [Compound 15, 7-chloro-4-(2-((6-(4,5-dimethyl-1H-imidazol-1-yl)pyridin-3-yl)methylene)hydrazineyl)quinazoline hydrochloride]
IC50 [2]: 7.05 µM

Structure (SMILES): Fc1cc(/C=N/Nc2ccnc3cc(Cl)ccc23)ccc1-n1ccnc1 [Compound 35, (E)-7-chloro-4-(2-(3-fluoro-4-(1H-imidazol-1-yl)benzylidene)hydrazineyl)quinoline hydrochloride]
IC50 [2]: 10.4 µM | IC50 [3]: 41.5 µM
